Test results taken from article PMC12073497 (Molecules, 2025).
Where “and” joins values, the source holds several entries; their conditions need not be identical. Equal entries are not always repeated.

Tested on: not listed separately
Assay: DPPH radical scavenging (antioxidant) assay
Assay type: biochemical
Conditions: means of triplicate ± SEM
Description: Oxidative stress is an imbalance between in vivo generated reactive oxygen/ nitrogen species (ROS/NOS) and the cellular antioxidant defenses. Oxidative stress is connected with more than one hundred illnesses that include cardiovascular, cancer, neurogenerative diseases, hypertension, atherosclerosis, and diabetes mellitus. Antioxidants decrease the cellular level of ROS and thus play a significant role in preventing related diseases. Antioxidants react with ROS through three possible mechanisms: (i) hydrogen transfer, (ii) electron transfer, and (iii) metal chelation. DPPH radical scavenging assay relies on the electron/hydrogen atom transfer (mixed) mechanism. The prepared crown ethers with variable cavity sizes 10a–d, parent precursor (FABE) 8, and the novel intermediate 7 were examined for antioxidant behavior using the DPPH radical scavenging protocol, following the literature, and the results are shown in Table 1.
Gulcin et al. proposed a method for the free radical scavenging activity (antioxidant activity) using 1,1-diphenyl-2-picryl-hydrazil (DPPH). An ethanolic solution of DPPH was prepared at a concentration of 0.3 mM. In the next step, different concentrations of each sample were prepared in ethanol, ranging from (62.5–500 μg) by mixing 5 microliters of each sample with 95 µL of DPPH solution. The resulting mixture was transferred to 96-well plates and incubated for 30 min at 37 °C. A microtiter plate reader (Spectramax plus 384 Molecular Device, San Jose, CA, USA) was used to measure the absorbance at 515 nm, and the radical scavenging activity (%) was compared with the methanol-treated control. The standard for the protocol was Butyl hydroxyanisole (BHA). DPPH scavenging effect (%) = Ac − As/Ac × 100, where Ac is the absorbance of the control (DMSO-treated), and As is the absorbance of the sample.

Row | Compound | IC50
1 | COc1ccc(O)cc1C(C)(C)C [Butylated hydroxyanisole, reference compound] | 44.2 ± 0.3 µM
2 | CCCCOC(=O)/C(CCC=C(C)C)=C1\[C@@H](OC(C)=O)C[C@@]2(C)[C@@H]1CC(O)[C@@H]1[C@@]3(C)CCC(O)[C@@H](C)C3CC[C@@]12C (some centres unmarked) [Compound 8, Butyl(2Z)-2-[(4a,8a,14b,16b)-16-(acetyloxy)-3,11-dihydroxy-4,8,10,14-tetramethylgonan-17-ylidene]-6-methylhept-5-enoate] | 54.6 ± 0.2 µM
3 | CCCCOC(=O)C(CCC=C(C)C)=C1C(OC(C)=O)CC2(C)C1CC1OCCOCCOC3CCC4(C)C(CCC2(C)C14)C3C [Compound 10a, Butyl(2Z)-2-[(3aS,16S,17aS,17bS,18S)-16-(acetyloxy)-3a,17a,17b,18-tetramethyloctahydro-3,6 methanocyclopenta[3,4]naptho[1,8hi][1,4,7]trioxyacylotridecin-15(1H)-ylidene]-6-methylhept-5-enoate] | 65.5 ± 0.3 µM
4 | CCCCOC(=O)/C(CCC=C(C)C)=C1/C2CC3OCCOCCOCCOC4CC[C@@]5(C)C(CC[C@@](C)(C35)[C@@]2(C)C[C@@H]1OC(C)=O)[C@@H]4C (stereo partly drawn) [Compound 10b, Butyl(2Z)-2-[(3aS,19S,20aS,20bS,21S)-19-(acetyloxy)-3a,20a,20b,21-tetramethylicosahydro-3,6-methanocyclopenta[3,4]naphtho[1,8-kl][1,4,7,10]tetraoxacyclohexadecin-18(1H)-ylidene]-6-methylhept-5-enoate] | 22.5 µM and 32.1 µM
5 | CCCCOC(=O)/C(CCC=C(C)C)=C1/C2CC3OCCOCCOCCOCCOC4CC[C@@]5(C)C(CC[C@@](C)(C35)[C@@]2(C)C[C@@H]1OC(C)=O)[C@@H]4C (stereo partly drawn) [Compound 10c, Butyl(2Z)-2-[(3aS,22S,23aS,23bS,24S)-22-(acetyloxy)-3a,23a,23b,24-tetramethyldocosahydro-3,6-methanocyclopenta[3,4]naphtho[1,8-no][1,4,7,10,13]pentaoxacyclononadecin-21(1H)-ylidene]-6-methylhept-5-enoate] | 32.1 µM and 22.5 µM
6 | CCCCOC(O)(OC(=NC1CCCCC1)NC1CCCCC1)/C(CCC=C(C)C)=C1\[C@@H](OC(C)=O)C[C@@]2(C)[C@H]1C[C@@H](O)[C@H]1[C@@]3(C)CC[C@@H](O)[C@@H](C)[C@@H]3CC[C@@]12C (some centres unmarked) [Intermediate 7] | 32.9 ± 0.4 µM
7 | Butyl(2Z)-2-[(3aS,27S,28aS,28bS,29S)-27-(acetyloxy)-3a,28a,28b,29-tetramethyltetracosahydro-3,6-methanocyclopenta[3,4] naphtho[1,8-st][1,3,6,9,12,15,18]heptaoxacyclotetracosin-26(1H)-ylidene]-6- methylhept-5-enoate [Compound 10d] | 45.4 ± 0.9 µM

Target: α-glucosidase (Sigma, type III, from yeast) (Saccharomyces cerevisiae, UniProt P53341)
Assay: α-Glucosidase inhibition assay
Assay type: biochemical
Conditions: means of triplicate ± SEM
Description: In this background, according to the standard protocol [51], we examined the prepared crown ether molecules 10a–d along with parent precursor FABE 8 and the novel intermediate 7 for their in vitro α-glucosidase inhibition potential.
The protocol for the α-Glucosidase inhibition assay is built on the formation of product as a result of substrate breakdown, detected by absorbance measurement [69]. In the first step, an enzyme α-glucosidase (Sigma, type III, from yeast) was prepared in buffer solution A (0.1 mol/L potassium phosphate, 3.2 mmol/L-MgCl2, pH = 6.8) (0.1 units/mL) mixed with p-nitrophenyl-α-D-glucopyranoside dissolved to obtain the desired concentration of substrate of 6 mmol/L. Another Buffer solution B (102 µL) was prepared by mixing (0.5 M KH2PO4, 16 mmol/L-MgCl2, pH = 6.8) along with 120 µL of sample solution (0.6 mg/mL in dimethyl sulfoxide), 282 µL of water and 200 µL of substrate. In the next step, 200 µL of enzyme was added in the same reaction mixture, incubated for 5 min at 37 °C. […] The activity of enzyme inhibition was measured at 410 nm by its absorbance. […] The inhibition% is equal to Ac − As/Ac × 100, where Ac is the absorbance (control), and As is the absorbance (Sample).

α-glucosidase (Sigma, type III, from yeast), sequence (P53341 whole entry): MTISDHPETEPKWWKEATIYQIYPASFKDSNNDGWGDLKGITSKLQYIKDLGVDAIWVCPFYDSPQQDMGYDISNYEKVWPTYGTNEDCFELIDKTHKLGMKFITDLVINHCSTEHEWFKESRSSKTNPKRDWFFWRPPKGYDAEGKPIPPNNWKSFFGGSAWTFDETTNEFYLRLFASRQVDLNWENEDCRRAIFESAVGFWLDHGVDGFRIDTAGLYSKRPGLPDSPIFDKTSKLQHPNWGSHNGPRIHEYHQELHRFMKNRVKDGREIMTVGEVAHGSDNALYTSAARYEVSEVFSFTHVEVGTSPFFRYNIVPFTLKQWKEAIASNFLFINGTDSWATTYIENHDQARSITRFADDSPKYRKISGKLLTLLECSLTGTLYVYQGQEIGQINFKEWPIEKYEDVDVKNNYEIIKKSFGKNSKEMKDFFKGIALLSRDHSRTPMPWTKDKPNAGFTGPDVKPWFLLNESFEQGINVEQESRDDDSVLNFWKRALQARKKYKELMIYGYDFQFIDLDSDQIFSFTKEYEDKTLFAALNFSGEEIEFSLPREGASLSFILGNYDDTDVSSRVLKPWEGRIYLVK

Row | Compound | IC50
8 | Butyl(2Z)-2-[(3aS,27S,28aS,28bS,29S)-27-(acetyloxy)-3a,28a,28b,29-tetramethyltetracosahydro-3,6-methanocyclopenta[3,4] naphtho[1,8-st][1,3,6,9,12,15,18]heptaoxacyclotetracosin-26(1H)-ylidene]-6- methylhept-5-enoate [Compound 10d] | 54.3 ± 0.1 µM
